{"source": "paper PMC9554301", "about": "“Rapid modeling of experimental molecular kinetics with simple electronic circuits instead of with complex differential equations” (Frontiers in Bioengineering and Biotechnology, 2022)", "key": {"[1]": {"target": "T1, beta-galactosidase (Escherichia coli, UniProt P00722)", "T1 construct": "gene lacZ", "T1 sequence (P00722 2-1024)": "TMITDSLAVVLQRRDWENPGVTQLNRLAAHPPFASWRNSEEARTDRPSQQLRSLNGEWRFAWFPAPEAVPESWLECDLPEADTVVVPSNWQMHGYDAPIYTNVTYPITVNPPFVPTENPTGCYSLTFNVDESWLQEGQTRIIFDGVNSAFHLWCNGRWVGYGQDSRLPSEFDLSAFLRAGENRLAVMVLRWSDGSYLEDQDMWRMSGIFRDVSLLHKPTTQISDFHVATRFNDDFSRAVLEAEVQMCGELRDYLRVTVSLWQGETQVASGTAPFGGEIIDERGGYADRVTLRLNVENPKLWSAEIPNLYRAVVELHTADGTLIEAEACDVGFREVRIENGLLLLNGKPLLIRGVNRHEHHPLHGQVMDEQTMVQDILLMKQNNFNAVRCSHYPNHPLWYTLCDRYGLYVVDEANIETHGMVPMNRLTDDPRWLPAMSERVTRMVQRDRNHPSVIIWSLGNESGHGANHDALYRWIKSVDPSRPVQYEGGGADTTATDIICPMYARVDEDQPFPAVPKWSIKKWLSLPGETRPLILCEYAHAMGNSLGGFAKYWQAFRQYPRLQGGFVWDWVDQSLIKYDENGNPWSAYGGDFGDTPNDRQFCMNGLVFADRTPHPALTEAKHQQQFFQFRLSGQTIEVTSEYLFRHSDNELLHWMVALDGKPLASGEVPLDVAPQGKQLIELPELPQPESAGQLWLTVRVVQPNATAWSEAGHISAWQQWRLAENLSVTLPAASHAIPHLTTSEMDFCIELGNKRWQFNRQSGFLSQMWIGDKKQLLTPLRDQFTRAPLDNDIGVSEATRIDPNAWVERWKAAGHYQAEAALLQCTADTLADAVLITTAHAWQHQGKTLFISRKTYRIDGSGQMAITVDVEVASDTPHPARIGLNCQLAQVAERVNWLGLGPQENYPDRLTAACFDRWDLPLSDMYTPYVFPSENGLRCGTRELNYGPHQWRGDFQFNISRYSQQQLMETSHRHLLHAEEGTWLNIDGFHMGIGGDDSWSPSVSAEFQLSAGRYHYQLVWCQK", "experiment": "product-feedback inhibition of ONPG hydrolysis, absorbance at […] nm", "assay_type": "biochemical"}, "[2]": {"target": "T1, beta-galactosidase", "experiment": "hydrolysis kinetics (Km), absorbance of 2-nitrophenol at […] nm", "assay_type": "biochemical"}, "[3]": {"target": "T1, beta-galactosidase", "experiment": "ONPG hydrolysis absorbance assay at […] nm, Lineweaver-Burk", "assay_type": "biochemical"}, "[4]": {"substrate": "CCO", "experiment": "ethanol oxidation kinetics (Km), NADH absorbance, Lineweaver-Burk", "assay_type": "biochemical, Saccharomyces cerevisiae", "conditions": "NAD+ binds the E-NAD complex (ordered Bi-Bi)"}}}
{"molecule": "OC[C@H]1OC(O)[C@H](O)[C@@H](O)[C@H]1O", "note": "(stereo partly shown) [Gal, galactose]", "values": [{"measurement": "Ki", "setting": "[1]", "value": 13.7, "unit": "mM"}]}
{"molecule": "O=[N+]([O-])c1ccccc1O[C@@H]1O[C@H](CO)[C@H](O)[C@H](O)[C@H]1O", "note": "[ONPG, o-nitrophenyl-β-D-galactopyranoside]", "values": [{"measurement": "Km", "setting": "[2]", "value": 167, "unit": "µM"}]}
{"molecule": "OC[C@H]1O[C@@H](SCCc2ccccc2)[C@H](O)[C@@H](O)[C@H]1O", "note": "[PETG, phenylethyl beta-D-thiogalactopyranoside]", "values": [{"measurement": "Ki", "setting": "[3]", "value": 0.00233, "unit": "mM"}]}
{"molecule": "alcohol dehydrogenase (Saccharomyces cerevisiae S288C) (protein, yeast alcohol dehydrogenase (cat# A7011)) SIPETQKGVIFYESHGKLEYKDIPVPKPKANELLINVKYSGVCHTDLHAWHGDWPLPVKLPLVGGHEGAGVVVGMGENVKGWKIGDYAGIKWLNGSCMACEYCELGNESNCPHADLSGYTHDGSFQQYATADAVQAAHIPQGTDLAQVAPILCAGITVYKALKSANLMAGHWVAISGAAGGLGSLAVQYAKAMGYRVLGIDGGEGKEELFRSIGGEVFIDFTKEKDIVGAVLKATDGGAHGVINVSVSEAAIEASTRYVRANGTTVLVGMPAGAKCCSDVFNQVVKSISIVGSYVGNRADTREALDFFARGLVKSPIKVVGLSTLPEIYEKMEKGQIVGRYVVDTSK", "values": [{"measurement": "Km", "setting": "[4]", "value": 14300, "unit": "µM"}]}
